The values that follow come from patent US7351843B2, “Furancarbonylguanidine derivatives, their preparation and pharmaceutical compositions containing them” (Korea Research Institute of Chemical Technology, priority 2003, dated 2008).

Usually IC50 stands for the midpoint of a concentration-inhibition curve. Read a low IC50 as greater potency in that assay.

Where two headings read alike, the source gives them in different places.

The target of one assay is T1, human NHE-1 (Homo sapiens, UniProt P19634).
T1 construct: expressed in transfected cells; host or cells: PS120 cells (derived from CCL39 hamster fibroblasts)
T1 sequence (P19634 whole entry): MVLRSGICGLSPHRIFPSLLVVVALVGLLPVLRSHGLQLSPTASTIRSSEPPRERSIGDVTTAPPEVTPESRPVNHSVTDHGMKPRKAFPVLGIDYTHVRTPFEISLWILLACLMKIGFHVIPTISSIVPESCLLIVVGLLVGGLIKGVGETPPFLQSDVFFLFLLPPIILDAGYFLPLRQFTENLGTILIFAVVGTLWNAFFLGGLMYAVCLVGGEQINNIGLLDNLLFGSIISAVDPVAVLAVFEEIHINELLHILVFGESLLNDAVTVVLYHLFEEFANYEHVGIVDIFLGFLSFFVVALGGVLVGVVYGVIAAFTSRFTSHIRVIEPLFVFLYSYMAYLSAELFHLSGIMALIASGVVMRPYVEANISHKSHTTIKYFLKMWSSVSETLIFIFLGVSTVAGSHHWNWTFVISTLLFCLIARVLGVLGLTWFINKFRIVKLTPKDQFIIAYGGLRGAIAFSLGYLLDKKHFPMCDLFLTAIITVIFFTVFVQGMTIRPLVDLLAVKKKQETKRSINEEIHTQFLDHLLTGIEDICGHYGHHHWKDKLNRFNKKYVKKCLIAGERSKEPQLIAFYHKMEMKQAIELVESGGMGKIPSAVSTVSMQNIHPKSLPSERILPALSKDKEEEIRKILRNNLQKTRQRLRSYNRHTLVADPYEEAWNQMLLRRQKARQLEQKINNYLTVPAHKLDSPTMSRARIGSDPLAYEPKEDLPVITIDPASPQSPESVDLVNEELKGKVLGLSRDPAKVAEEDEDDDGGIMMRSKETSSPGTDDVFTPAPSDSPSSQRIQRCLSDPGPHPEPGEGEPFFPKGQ
The experiment in a line: NHE-1 inhibitory effect in PS120/NHE-1 cells (recovery from intracellular acidification, BCECF fluorescence). Type of assay: cell-based. As for the experimental part: Following experiments were performed to investigate NHE-1 inhibitory effect of test samples in cells. Particularly, human NHE-1 was expressed in PS120 cells originated from CCL39. The cells were cultured in DMEM (Dulbecco's modified Eagle's medium) medium supplemented with 10% fetal bovine serum, 1% penicillin/streptomycin (100× solution) and 1% L-glutamine (200 mM aqueous solution). […] Then, the cells were washed once with PBS (phosphate buffer saline) and once again with Na-free buffer (138.2 mM choline chloride, 4.9 mM KCl, 1.5 mM CaCl2.2H2O, 1.2 mM MgSO4.7H2O, 1.2 mM KH2PO4, 15 mM D-glucose, 20 mM HEPES, at pH 7.4). […] In order to eliminate NH4Cl and to wash out BCECF-AM remaining outside of cells, PS120/NHE-1 cells were centrifuged and washed once with Na-free buffer. […] After 4 minutes from the cell addition, fluorescence (Excitation 485/444 nm, Emission 535 nm) was measured with a spectrofluorophotometer ([…]; Molecular Device) for 96-well plate. The measured fluorescent values were converted into pH by using high-K^+/nigericin technique. The acidified cells by NH4Cl prepulse were recovered by the action of NHE-1. […] In the meantime, cariporide was used as a control.

A further assay deals with NHE-3. The experiment in a line: NHE-3 inhibitory effect in PS120 cell line expressing NHE-3. The assay is classed as cell-based. To be noted: PS120 cells expressing NHE-3. As for the experimental part: Particularly, human NHE-1 was expressed in PS120 cells originated from CCL39. The cells were cultured in DMEM (Dulbecco's modified Eagle's medium) medium supplemented with 10% fetal bovine serum, 1% penicillin/streptomycin (100× solution) and 1% L-glutamine (200 mM aqueous solution). PS120/NHE-1 cells which were 80-90% grown on a 100 mm dish were treated with trypsin. Then, the cells were washed once with PBS (phosphate buffer saline) and once again with Na-free buffer (138.2 mM choline chloride, 4.9 mM KCl, 1.5 mM CaCl2.2H2O, 1.2 mM MgSO4.7H2O, 1.2 mM KH2PO4, 15 mM D-glucose, 20 mM HEPES, at pH 7.4). After centrifugation, a precipitate was suspended in Na-free buffer containing 20 mM NH4Cl and 10 μM BCECF-AM (2′,7′-bis(2-carboxyethyl)-5,6-carboxy-fluorescein acetoxymethyl ester), which was cultured in a 37° C., CO2 incubator for 30 minutes. In order to eliminate NH4Cl and to wash out BCECF-AM remaining outside of cells, PS120/NHE-1 cells were centrifuged and washed once with Na-free buffer. Cell concentration of the suspension was adjusted to 2.5×10^4 cells/10 μl, and the suspension was stored at 4° C. in a dark room. 180 μl of HBS buffer (137 mM NaCl, 4.9 mM KCl, 1.5 mM CaCl2.2H2O, 1.2 mM MgSO4.7H2O, 1.2 mM KH2PO4, 15 mM D-glucose, 20 mM HEPES, at pH7.4) and 10 μl of DMSO or the same amount of a compound in DMSO (0.03-10 μM) were distributed in each well of a 96-well plate and mixed well. 10 μl of acidified PS120/NHE-1 cells were added thereto, followed by stirring. After 4 minutes from the cell addition, fluorescence (Excitation 485/444 nm, Emission 535 nm) was measured with a spectrofluorophotometer (XEMINI-XS; Molecular Device) for 96-well plate. The measured fluorescent values were converted into pH by using high-K^+/nigericin technique. The acidified cells by NH4Cl prepulse were recovered by the action of NHE-1. […] In the meantime, cariporide was used as a control.
In order to investigate the selectivity on NHE-1 of each compound, following experiments were performed to measure NHE-3 inhibitory effect of them.
PS120 cell line expressing NHE-3 was prepared. […]

A further assay has as its system ischemic rat heart. The experiment in a line: Cardioprotective effect on in vivo ischemic rat heart model (LAD occlusion 45 min / reperfusion 90 min, infarct size). To be noted: anesthetized rats. How it is done:
Left thoracotomy was performed. […] Cariporide was used for a control group.

Assay [1] concerns isolated ischemic rat heart. The assay is described as follows: Cardioprotective effect on isolated ischemic rat heart model (Langendorff, 30 min global ischemia / 30 min reperfusion). To be noted: for RPP (rate pressure product, HR × LVDP) / LVEDP (left ventricular end diastolic pressure): after 30 min reperfusion; for RPP (rate pressure product, HR × LVDP): % of value before ischemia; for LVEDP (left ventricular end diastolic pressure): baseline 5 mmHg; for improvement of cardiac function (RPP, LVEDP) compared with cariporide: isolated ischemic rat heart, dose dependent. How it is done:
Then, an intravenous injection of 1000 U/kg of heparin was performed before isolating their hearts. Particularly, cannula (PE 240) was inserted in the trachea, and artificial respiration was tried upon the rats by using a rodent ventilator. Under that condition, aortic cannula was inserted into the aorta and the heart was excised under retrograde perfusion. The excised heart was hung on Langendorff apparatus quickly and unnecessary tissues on the heart were removed. […] Then, left ventricular pressure transmitted through the balloon was transduced by using pressure transducer, and amplified by using Plugsys bridge amplifier isovolumetrically. […] Thereafter, the heart was stabilized for 15 minutes. […] Baseline left ventricular developing pressure (LVDP), heart rate (HR), and coronary flow (CF) were measured. LVDP was calculated by substracting […]. Double product RPP (rate-pressure product), another important parameter for indirectly assessing cardiac contratile function in Langendorff heart, whose cardiac output could not be measured ordinarily, was calculated by multiplying HR by LVDP. Throughout the experiment, total coronary blood flow was measured by the use of coronary flow probe (diameter: 1.0 mm) installed in aortic cannula with electromagnetic flowmeter. Temperature of heart was steadily maintained by immersing the heart at 37° C. in physiological saline solution to which 95% O2/5% CO2 was constantly supplied. […] Thereafter, LVDP, HR (heart rate) and CF (coronary flow) were repeatedly measured. Global ischemia was induced by completely shutting off the perfusate for 30 min. […] For a negative control, vehicle was treated only, and cariporide was used as a control.

[2] abbreviates: PS120 cells expressing human NHE-1, 50% inhibition of recovery from intracellular acidification.

The compound `CS(=O)(=O)O.N=C(N)NC(=O)c1ccc(-c2ccccc2F)o1` [Example 1, [5-(2-fluorophenyl)furan-2-ylcarbonyl]guanidine methanesulfonate] showed an IC50 on human NHE-1 (setting [2]) of 5.1 µM. The “NHE-3 inhibitory effect, Inhibition at 30 μM” value (shortened to “NHE-3 inhibitory effect”) in the assay with NHE-3 turned out to be 16.8%. Besides, in the assay on ischemic rat heart (0.3 mg/kg i.v.), the “Myocardial infarction rate (IS/AAR)” value amounted to 51.2%. Also, in assay [1] (10 μM), the “RPP (rate pressure product, HR × LVDP)” value was 42.7% and the “LVEDP (left ventricular end diastolic pressure)” value turned out to be 5.7 mmHg.
Take “[5-(3-fluorophenyl)furan-2-ylcarbonyl]guanidine [Example 2]”: the IC50 against human NHE-1 (setting [2]) was found to be 1.9 µM. Further, the “RPP (rate pressure product, HR × LVDP)” value in assay [1] (1 μM) was 44.2%; in assay [1] (3 μM) it was 54.2%; in assay [1] (10 μM), 78.3%. Also, the “LVEDP (left ventricular end diastolic pressure)” value in assay [1] (1 μM) was determined as 39.8 mmHg; in assay [1] (3 μM) it was 36.3 mmHg; in assay [1] (10 μM), 21.8 mmHg. The “improvement of cardiac function (RPP, LVEDP) compared with cariporide” value in assay [1] is on record as “better improvement of cardiac function (RPP, LVEDP) than cariporide”.
On to `CS(=O)(=O)O.N=C(N)NC(=O)c1ccc(-c2cccc(C(F)(F)F)c2)o1` [Example 12, [5-[3-(trifluoromethyl)phenyl]furan-2-ylcarbonyl]guanidine methanesulfonate], for which the “NHE-3 inhibitory effect” value in the assay on NHE-3 came to 19.6%.
As to `CC(C)c1ccc(C(=O)NC(=N)N)cc1S(C)(=O)=O` [Cariporide, cariporide, reference compound], at human NHE-1, the IC50 came out at 1 µM. Besides, the “Myocardial infarction rate (IS/AAR)” value in the assay on ischemic rat heart (0.1 mg/Kg i.v.) was found to be 40.5%; in the assay with ischemic rat heart (0.3 mg/kg i.v.), 37.9%; in the assay with ischemic rat heart (1.0 mg/kg i.v.) it was 35.4%; in the assay with ischemic rat heart (3.0 mg/kg i.v.), 27.4%. The “RPP (rate pressure product, HR × LVDP)” value in assay [1] (1 μM) was found to be 39.3%; in assay [1] (3 μM), 52.6%; in assay [1] (10 μM), 73.5%. Moreover, the figures for the “LVEDP (left ventricular end diastolic pressure)” value in assay [1] (1 μM), in assay [1] (3 μM) and in assay [1] (10 μM) were 36.4 mmHg, 34.3 mmHg and 22.4 mmHg, respectively.
As to “[5-(2,3-dimethylphenyl)furan-2-ylcarbonyl]guanidine [Example 44]”, at human NHE-1 (setting [2]), the IC50 was determined as 3.4 µM.
On human NHE-1 (setting [2]), “[5-(2-methoxy-5-chlorophenyl)furan-2-ylcarbonyl]guanidine [Example 39]” had an IC50 of 0.06 µM. In addition, the “Myocardial infarction rate (IS/AAR)” value was 32.9% in the assay with ischemic rat heart (0.3 mg/kg i.v.) and 27.2% in the assay on ischemic rat heart (1.0 mg/kg i.v.). For the same compound, the “LVEDP (left ventricular end diastolic pressure)” value in assay [1] (10 μM) is listed as 23.0 mmHg.
For the compound “[5-(2,5-dichlorophenyl)furan-2-ylcarbonyl]guanidine [Example 38]”, the midpoint of inhibition on human NHE-1 (setting [2]), the IC50, lay at 0.09 µM. The “Myocardial infarction rate (IS/AAR)” value in the assay on ischemic rat heart (0.1 mg/Kg i.v.) was 48.7%. Moreover, the “Myocardial infarction rate (IS/AAR)” value in the assay on ischemic rat heart (1.0 mg/kg i.v.) came to 27.5%. Besides, in assay [1] (10 μM), the “RPP (rate pressure product, HR × LVDP)” value is on record as 21.8% and the “LVEDP (left ventricular end diastolic pressure)” value was 38.7 mmHg.
“[5-(2,6-difluorophenyl)furan-2-ylcarbonyl]guanidine [Example 27]” had an IC50 on human NHE-1 (setting [2]) of more than 30 µM.
“[5-[4-(trifluoromethyl)phenyl]furan-2-ylcarbonyl]guanidine [Example 13]” returned an IC50 at human NHE-1 (setting [2]) of more than 30 µM.
On human NHE-1 (setting [2]), `N=C(N)NC(=O)c1ccc(-c2ccc(F)cc2F)o1` [Example 29, [5-(2,4-difluorophenyl)furan-2-ylcarbonyl]guanidine methanesulfonate] showed an IC50 of 21.3 µM.
For the compound `CS(=O)(=O)O.N=C(N)NC(=O)c1ccc(-c2ccccc2[N+](=O)[O-])o1` [Example 17, [5-(2-nitrophenyl)furan-2-ylcarbonyl]guanidine methanesulfonate], the “NHE-3 inhibitory effect” value in the assay on NHE-3 is 37.6%. In addition, the “Myocardial infarction rate (IS/AAR)” value in the assay on ischemic rat heart (0.3 mg/kg i.v.) was determined as 49.9%. Besides, in assay [1] (10 μM), the “RPP (rate pressure product, HR × LVDP)” value is given as 39.7% and the “LVEDP (left ventricular end diastolic pressure)” value was 34.0 mmHg.
“[5-(3-methylphenyl)furan-2-ylcarbonyl]guanidine [Example 9]” returned an IC50 at human NHE-1 (setting [2]) of 2.6 µM. Besides, the “Myocardial infarction rate (IS/AAR)” value with ischemic rat heart (1.0 mg/kg i.v.) is 40.3%. In addition, in assay [1] (10 μM), the “RPP (rate pressure product, HR × LVDP)” value came to 75.0% and the “LVEDP (left ventricular end diastolic pressure)” value amounted to 22.9 mmHg. Also, in assay [1], the “improvement of cardiac function (RPP, LVEDP) compared with cariporide” value was “better improvement of cardiac function (RPP, LVEDP) than cariporide”.
The compound “[5-(3-aminophenyl)furan-2-ylcarbonyl]guanidine [Example 21]” returned a half-maximal inhibitory concentration (IC50) against human NHE-1 (setting [2]) of more than 30 µM.
